pIC50: −log10 of the molar value. Read-outs that look alike come from different tables or passages of the source.
How the values were obtained:
[1] = target: Human Glucocorticoid Receptor (GR) (Homo sapiens (Human), UniProt P04150); assay: Human Glucocorticoid Receptor (GR) radioligand binding assay (competition with 3H-labeled Dexamethasone); conditions: full length GR, 7 nM 3H-dexamethasone, 2 h at room temperature; read-out: GR Hu Bind Filter Mean Control IC50
Experimental: Human Glucocorticoid Receptor (GR) Assay
The radioligand GR binding assay is based on a competition assay using ^3H-labeled Dexamethasone, Dexamethasone is known to bind in the ligand binding domain of GR and compete for binding with endogenous ligands like e.g. cortisol (Necela, 2003).
In the GR radioligand binding assay, test compounds were serially diluted in semi-log steps (10 concentrations) with a final concentration of 10 μM. Test compounds (1 μL) and controls (1 μL) in 100% DMSO were added to 96 Greiner V-bottom polypropylene plates. 0% control was 6.7% DMSO (final concentration in assay) and 100% control was 6.7 μM Dexamethasone.
The full length GR was diluted to a final concentration of 3.3% (0.495 mg/ml) in assay buffer (20 mM Tris-HCl, 1 mM EDTA, 10% (w/v) Glycerol, 20 mM Sodium molbydate, pH 7.4). 45 μL of GR was added to each well and the plates were incubated for 15 min at room temperature.
^3H-dexamethasone solution was diluted to a concentration of 70 nM in assay buffer (7 nM final assay concentration) and 5 μL was added to each well. The samples were mixed for 5 min using a plate shaker at 700 rpm, before incubation for 2 h at room temperature,
50 μL ice-cold charcoal solution (pH 7.4: 2% Charcoal, 0.2% Dextran T70 in 20 mM Tris-HCl, 1 mM EDTA and 20 mM Sodium molbydate) was'added to each well and the samples were mixed on plate shaker for 5 minutes.
The plate was then centrifuged for 1.5 min at 1500 rpm, the samples (80 μL) were transferred from each well to a filter plate (Millipore, 0.45 μm, MHVBN45) on a vacuum manifold and then collected into new plates (Greiner, 96 well white/transparent, 655095). The filter plate was washed once with 20 μl of water and then 100 μL of scintillation liquid was added to each well and mixed by incubation on plate shaker for 5 min. Radioactivity was measured in a 1450 Microbeta Trilux Reader (Wallac) counting cpm for 2 minutes per well. The data obtained from each replicate experiment were analysed using the software ActivityBase, version 5.4.3 (ID Business Solutions Ltd) and IC50 values were calculated. Ref: Necela, B M, Cidlowski, J A, Trends Pharmacol Sci, 24: 58, 2003

[2] = test system: AP-1/TRE-activity in ChaGo-K-1 cells transfected with 5×TRE-LacZ; assay: Transrepression Reporter Gene Assay (TRE-LacZ transfected ChaGo-K-1 cells, PMA stimulated); format: cell-based, human; conditions: PMA 10 ng/ml, Dexamethasone 10^-6 M set as 100 percent control, read-out: Agonism TRE IC50
Experimental: Transrepression Reporter Gene Assay
The human bronchogenic carcinoma cell-line, ChaGo-K-1 (ATCC: HTB 168), were transfected with 5×TRE-LacZ (clone 16:15:5 s5), i.e. TRE transfected cells, to measure transrepression activity of the selected compounds. Before use, the cells were grown for one to two weeks in selection medium containing 0.7 mg geneticin (G418)/ml medium. The cells were cultured at 37° C., 5% CO2 and 100% humidity in 96 well microtiter plates in RPMI-medium complemented with 10% fetal calf serum, 1% non-essential amino acids and 1% sodium pyruvate. The cells were passaged once weekly.
The TRE transfected cells were seeded in 96 well plates with 25-30 000 cells/well and grown for 72-96 h, to reach about 80% confluence. To stimulate the upregulation of the AP-1/TRE-activity, the cells were stimulated with 10 ng/ml Phorbol Myristate acetate (PMA) 3-5 h prior to addition of compounds. The PMA was present during the whole experiment. The TRE mediated effects (transrepression) in the transfected ChagGo-K-1 cells was measured as downregulation of β-galactosidase activity. The β-galactosidase activity for the transrepression experiments was measured by a fluorometric assay performed in microtiter plates. Cells were washed once in PBS. 180 μl of a reaction mixture containing 5 parts of Z-buffer and one part 4-methylumbelliferyl-β-D-galactosidase (MUG)-solution was then added (150 μl Z-buffer [18 μl 0.6 M Na2HPO4, 12 μl 0.6 M NaH2PO4, 7.2 μl 0.25 M KCl, 18 μl 0.01 M MgSO4, 1.8 μl 10% Triton X-100, 93 μl H2O]+30 μl 3 mM 4-methylumbelliferyl-[…]). After 60 min incubation at 37° C., 70 μl stop buffer was added to each well and the fluorescence was read in a fluorometer (Spectramax Gemini) with emission filter at 460 nm and excitation filter at 360 nm. The TRE activity was calculated as the relative activity compared to cells not treated with compounds. Inhibition of β-galactosidase by the compounds is expressed as percent inhibition compared to Dexamethasone 10^−6 M set as a 100 percent control within each experiment and DMSO 0.1% set as background control. The effect of Dexamethasone is well documented in this system and was therefore chosen as a positive control for comparison of the potency and efficacy of the compounds.

[3] = Homo sapiens, ChaGo-K-1, downregulation of β-galactosidase activity

Chain of Human Glucocorticoid Receptor (GR) (P04150 whole entry): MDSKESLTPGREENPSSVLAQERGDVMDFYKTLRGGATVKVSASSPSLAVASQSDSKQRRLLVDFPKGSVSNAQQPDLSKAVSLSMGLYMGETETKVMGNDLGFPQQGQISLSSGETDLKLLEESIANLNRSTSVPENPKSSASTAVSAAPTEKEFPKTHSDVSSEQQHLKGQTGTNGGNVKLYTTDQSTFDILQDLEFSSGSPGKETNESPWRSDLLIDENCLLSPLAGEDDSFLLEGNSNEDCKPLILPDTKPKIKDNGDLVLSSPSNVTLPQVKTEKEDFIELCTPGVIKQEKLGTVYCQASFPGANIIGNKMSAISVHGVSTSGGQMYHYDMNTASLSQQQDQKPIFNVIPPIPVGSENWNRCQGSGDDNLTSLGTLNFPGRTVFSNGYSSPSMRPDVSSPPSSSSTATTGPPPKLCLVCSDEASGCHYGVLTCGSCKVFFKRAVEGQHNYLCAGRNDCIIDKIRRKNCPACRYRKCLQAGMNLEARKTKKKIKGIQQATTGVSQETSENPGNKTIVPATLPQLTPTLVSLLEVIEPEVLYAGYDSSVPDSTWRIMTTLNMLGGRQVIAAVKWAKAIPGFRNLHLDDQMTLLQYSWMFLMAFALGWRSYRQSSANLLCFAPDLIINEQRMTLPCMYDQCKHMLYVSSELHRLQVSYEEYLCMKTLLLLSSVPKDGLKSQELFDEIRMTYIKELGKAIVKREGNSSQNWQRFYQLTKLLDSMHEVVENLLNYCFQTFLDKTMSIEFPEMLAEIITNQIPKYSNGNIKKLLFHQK

SMILES | pIC50 [1] | pIC50 [2, 3] | pIC50 ([2]; downregulation of β-galactosidase activity)
C[C@H](NC(=O)C(C)(F)F)[C@H](Oc1ccc2c(cnn2-c2cccc(C(=O)N[C@@H]3CCS(=O)(=O)C3)c2)c1)c1ccc2c(c1)OCOC2 [Example 3, 3-[5-({(1R,2S)-1-(4H-1,3-Benzodioxin-7-yl)-2-[(2,2-difluoropropanoyl)amino]propyl}oxy)-1H-indazol-1-yl]-N-[(3R)-1,1-dioxidotetrahydrothiophen-3-yl]benzamide] |  | 9.46 | 
C[C@H](NC(=O)C(C)(F)F)[C@H](Oc1ccc2c(cnn2-c2cccc(C(=O)NC3CCCC3)c2)c1)c1ccc2c(c1)OCCO2 [Example 7, N-cyclopentyl-3-(5-{[(1R,2S)-2-[(2,2-difluoropropanoyl)amino]-1-(2,3-dihydro-1,4-benzodioxin-6-yl)propyl]oxy}-1H-indazol-1-yl)benzamide] | 8.89 | 9.79 | 
C[C@H](NC(=O)C(C)(F)F)[C@H](Oc1ccc2c(cnn2-c2cccc(C(=O)N[C@@H]3CCC[C@@H]3O)c2)c1)c1ccc2c(c1)OCCO2 [Example 10, 3-(5-{[(1R,2S)-2-[(2,2-difluoropropanoyl)amino]-1-(2,3-dihydro-1,4-benzodioxin-6-yl)propyl]oxy}-1H-indazol-1-yl)-N-[(1R,2S)-2-hydroxycyclopentyl]benzamide] | 9.19 | 9.95 | 
CC[C@@H](O)CNC(=O)c1cccc(-n2ncc3cc(O[C@H](c4ccc5c(c4)OCOC5)[C@H](C)NC(=O)C(C)(F)F)ccc32)c1 [Example 11, 3-[5-({(1R,2S)-1-(4H-1,3-benzodioxin-7-yl)-2-[(2,2-difluoropropanoyl)amino]propyl}oxy)-1H-indazol-1-yl]-N-[(2R)-2-hydroxybutyl]benzamide] | 8.67 | 9.29 | 
C[C@H](NC(=O)C(C)(F)F)[C@H](Oc1ccc2c(cnn2-c2cccc(C(=O)N[C@@H]3CCC[C@@H]3O)c2)c1)c1ccc2c(c1)OCOC2 [Example 14, 3-[5-({(1R,2S)-1-(4H-1,3-benzodioxin-7-yl)-2-[(2,2-difluoropropanoyl)amino]propyl}oxy)-1H-indazol-1-yl]-N-[(1R,2S)-2-hydroxycyclopentyl]benzamide] | 8.76 | 9.84 | 
C[C@H](NC(=O)C(C)(F)F)[C@H](Oc1ccc2c(cnn2-c2cccc(C(=O)NCc3ccccc3)c2)c1)c1ccc2c(c1)OCOC2 [Example 17, 3-[5-({(1R,2S)-1-(4H-1,3-benzodioxin-7-yl)-2-[(2,2-difluoropropanoyl)amino]propyl}oxy)-1H-indazol-1-yl]-N-benzylbenzamide] | 9.00 | 9.12 | 
C[C@H](NC(=O)C(C)(F)F)[C@H](Oc1ccc2c(cnn2-c2cccc(C(=O)N[C@H]3CCC[C@@H]3O)c2)c1)c1ccc2c(c1)OCOC2 [Example 18, 3-[5-({(1R,2S)-1-(4H-1,3-benzodioxin-7-yl)-2-[(2,2-difluoropropanoyl)amino]propyl}oxy)-1H-indazol-1-yl]-N-[(1S,2S)-2-hydroxycyclopentyl]benzamide] | 8.46 | 9.26 | 

Other lines, results leading:

pIC50 [1] | pIC50 [2, 3] | pIC50 ([2]; downregulation of β-galactosidase activity) | SMILES
8.44 | 9.30 |  | C[C@H](NC(=O)C(C)(F)F)[C@H](Oc1ccc2c(cnn2-c2cccc(C(=O)N[C@H]3CC[S+]([O-])C3)c2)c1)c1ccc2c(c1)OCOC2 (single isomer, unassigned) [Example 15]
8.37 |  | 9.22 | C[C@H](NC(=O)C(C)(F)F)[C@H](Oc1ccc2c(cnn2-c2cccc(C(=O)N[C@H]3CC[S+]([O-])C3)c2)c1)c1ccc2c(c1)OCOC2 (single isomer, unassigned) [Example 16]
 | 9.13 |  | C[C@H](NC(=O)C(C)(F)F)[C@H](Oc1ccc2c(cnn2-c2cccc(C(=O)N[C@H]3CCS(=O)(=O)C3)c2)c1)c1ccc2c(c1)OCOC2 [Example 4, 3-[5-({(1R,2S)-1-(4H-1,3-benzodioxin-7-yl)-2-[(2,2-difluoropropanoyl)amino]propyl}oxy)-1H-indazol-1-yl]-N-[(3S)-1,1-dioxidotetrahydrothiophen-3-yl]benzamide]
9.10 | 9.41 |  | C[C@H](NC(=O)C(C)(F)F)[C@H](Oc1ccc2c(cnn2-c2cccc(C(=O)NC3CCCC3)c2)c1)c1ccc2c(c1)OCOC2 [Example 8, 3-[5-({(1R,2S)-1-(4H-1,3-benzodioxin-7-yl)-2-[(2,2-difluoropropanoyl)amino]propyl}oxy)-1H-indazol-1-yl]-N-cyclopentylbenzamide]
